The values below come from PubChem BioAssay (NCI).

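Five compound concentrations were applied to cells in 96-well plates for 48 hours; endpoints were derived by simple linear interpolation of the resulting dose-response curve. At the GI50, growth is halved. TGI: total growth inhibition.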

Test systems include SN12C renal; SNB-75 CNS; HT29 colon; EKVX NSCLC; NCI-H23 lung; ACHN renal; SK-OV-3 ovarian; MDA-MB-231 breast; RXF 393 renal; COLO 205 colon.
What all share (assay): inhibition of tumour cell growth, NCI panel, 48 h

On to `c1ccc2cc(Cn3cc[n+](Cc4ccc5ccccc5c4)c3)ccc2c1`, for which the GI50 is 0.846 µM in the assay on SN12C renal; 0.328 µM in the assay with SNB-75 CNS; 0.555 µM in the assay with HT29 colon; 2.51 µM with EKVX NSCLC; 0.901 µM with NCI-H23 lung; 13.7 µM with ACHN renal. Besides, the GI50 in the assay with SK-OV-3 ovarian was 2.15 µM; in the assay with MDA-MB-231 breast it was 0.729 µM; with RXF 393 renal, 1.25 µM; in the assay with COLO 205 colon it was 0.4 µM. Besides, the TGI in the assay on SN12C renal stood at 7.03 µM; in the assay with SNB-75 CNS, 2.91 µM; in the assay with HT29 colon, 5.74 µM; with EKVX NSCLC, 15.5 µM; with NCI-H23 lung, 10.1 µM; in the assay on ACHN renal it was 27.6 µM. Also, the TGI is 11.1 µM in the assay on SK-OV-3 ovarian, 2.53 µM in the assay on MDA-MB-231 breast, 4.72 µM in the assay with RXF 393 renal and 1.67 µM in the assay with COLO 205 colon.

Take `COc1ccc(OC)c(NC(=O)c2cccc(NC3=C(Cl)C(=O)N(Cc4ccccc4)C3=O)c2)c1`: the GI50 was over 58.1 µM in the assay on SN12C renal; over 100 µM in the assay with SNB-75 CNS; over 100 µM in the assay on HT29 colon; 2.49 µM in the assay with EKVX NSCLC; over 70.8 µM with NCI-H23 lung; over 100 µM with ACHN renal. Moreover, the GI50 was over 100 µM with SK-OV-3 ovarian, over 35.7 µM in the assay on MDA-MB-231 breast, over 74.6 µM in the assay on RXF 393 renal and over 100 µM in the assay on COLO 205 colon. For the same compound, the TGI with SN12C renal is over 100 µM; in the assay on SNB-75 CNS, over 100 µM; in the assay on HT29 colon, over 100 µM; in the assay on EKVX NSCLC, 4.94 µM; with NCI-H23 lung it was over 100 µM; in the assay on ACHN renal it was over 100 µM. The TGI in the assay on SK-OV-3 ovarian was over 100 µM; in the assay on MDA-MB-231 breast, over 54.1 µM; in the assay on RXF 393 renal it was over 100 µM; with COLO 205 colon it was over 100 µM.

As for `CC(CN(C)C)S(=O)(=O)c1ccc(-c2cnc(N)c(C(=O)Nc3ccccc3)n2)cc1` (stereo not given), the GI50 in the assay on SN12C renal is 5.09 µM; in the assay with SNB-75 CNS, 2.58 µM; in the assay with HT29 colon, 2.68 µM; with EKVX NSCLC, 31.1 µM; in the assay with NCI-H23 lung, 3.05 µM; in the assay on ACHN renal, 1.35 µM. The GI50 with SK-OV-3 ovarian is 6.04 µM; with MDA-MB-231 breast, 10.6 µM; in the assay with RXF 393 renal, 1.52 µM; in the assay on COLO 205 colon, 2.74 µM. Further, the TGI with SN12C renal is 27 µM; in the assay on SNB-75 CNS, 35.5 µM; in the assay on HT29 colon, 13.4 µM; with EKVX NSCLC it was over 100 µM; in the assay on NCI-H23 lung it was 24.7 µM; with ACHN renal, 16.9 µM. Further, the TGI in the assay on SK-OV-3 ovarian is over 54.5 µM; in the assay with MDA-MB-231 breast it was 27.6 µM; in the assay on RXF 393 renal, 8.4 µM; with COLO 205 colon, 8.56 µM.

As to `CCN(CC)CCC(=O)OC1C(C)=CC(C)C(=O)CC(C(C)CC2CCC(O)C(OC)C2)OC(=O)C2CCCCN2C(=O)C(=O)[C@@]2(O)OC(CCC2C)CC(OC)\C(C)=C/C=C/C=C/C(C)CC(C)C(=O)C1OC` (stereo not given in full), the TGI with SN12C renal worked out at 21.1 µM; with SNB-75 CNS, 0.971 µM; in the assay on HT29 colon, 19.9 µM; in the assay on EKVX NSCLC, 17.1 µM; with NCI-H23 lung, 26.4 µM; in the assay with ACHN renal, 22.2 µM. Further, the TGI turned out to be 19.4 µM in the assay on SK-OV-3 ovarian, 26.7 µM with MDA-MB-231 breast, 15.2 µM in the assay on RXF 393 renal and 24.6 µM in the assay on COLO 205 colon.

For `O=C1NC(O)c2ccccc2O1` (stereo not given), the TGI with SN12C renal, in the assay on SNB-75 CNS, with HT29 colon, in the assay on EKVX NSCLC, in the assay with NCI-H23 lung and in the assay with ACHN renal was over 100 µM throughout. The TGI in the assay on SK-OV-3 ovarian, in the assay with MDA-MB-231 breast, in the assay with RXF 393 renal and with COLO 205 colon was over 100 µM in each case.

Take `O=P(O)(O)OCC1OC(n2cnc3c(NCc4ccco4)ncnc32)C(O)C1O` (stereo not given): the GI50 with SN12C renal is 0.989 µM; in the assay on SNB-75 CNS, 4.18 µM; in the assay on HT29 colon it was 2.98 µM; in the assay on EKVX NSCLC, 2.82 µM; in the assay on NCI-H23 lung it was 3.84 µM; in the assay on ACHN renal, 2.2 µM. The GI50 with SK-OV-3 ovarian was 2.34 µM; in the assay on MDA-MB-231 breast, 0.479 µM; in the assay with RXF 393 renal, 0.965 µM; in the assay on COLO 205 colon, 2.12 µM. The TGI in the assay with SN12C renal is over 37.2 µM; in the assay on SNB-75 CNS, over 30.6 µM; in the assay with HT29 colon, over 100 µM; with EKVX NSCLC, over 41 µM; with NCI-H23 lung it was over 70.5 µM; with ACHN renal it was over 100 µM. For the same compound, the TGI amounted to 8.73 µM with SK-OV-3 ovarian, 13.9 µM in the assay on MDA-MB-231 breast, 4.95 µM in the assay with RXF 393 renal and 9.88 µM in the assay on COLO 205 colon.

Turning to `Clc1ccccc1[C@@H]1C[C@@H]2Cc3cc(Br)c4ccccc4c3N1O2`, the GI50 in the assay with SN12C renal was 8.71 µM; in the assay on SNB-75 CNS it was 3.51 µM; in the assay with HT29 colon it was 2.38 µM; in the assay with EKVX NSCLC, 23.3 µM; with NCI-H23 lung, 8.33 µM; in the assay with ACHN renal it was 5.62 µM. In addition, the GI50 was 3.79 µM in the assay with SK-OV-3 ovarian, 10.4 µM in the assay with MDA-MB-231 breast, 1.73 µM with RXF 393 renal and 3.95 µM in the assay on COLO 205 colon. For the same compound, the TGI in the assay with SN12C renal was over 100 µM; in the assay with SNB-75 CNS it was over 100 µM; in the assay on HT29 colon, 5.19 µM; in the assay with EKVX NSCLC, over 100 µM; in the assay on NCI-H23 lung, over 100 µM; with ACHN renal, over 100 µM. For the same compound, the TGI in the assay on SK-OV-3 ovarian was over 100 µM; with MDA-MB-231 breast it was over 100 µM; in the assay with RXF 393 renal, 4.92 µM; in the assay with COLO 205 colon, 74 µM.

On to `COc1ccc(C(C#N)=C2C=CC(=NO)C=C2)cc1`, for which the GI50 in the assay with SN12C renal is 12.5 µM; in the assay on SNB-75 CNS, 5.3 µM; with HT29 colon, 3.59 µM; with EKVX NSCLC, 17.6 µM; in the assay with NCI-H23 lung, 12.8 µM; with ACHN renal it was 8.63 µM. Besides, the GI50 in the assay with SK-OV-3 ovarian is 29.6 µM; with MDA-MB-231 breast, 12.6 µM; in the assay with RXF 393 renal, 7.8 µM; with COLO 205 colon, 15.3 µM. Besides, the TGI amounted to 27.6 µM in the assay with SN12C renal; 18.9 µM with SNB-75 CNS; 12.5 µM in the assay with HT29 colon; 32.7 µM in the assay on EKVX NSCLC; 26.3 µM in the assay on NCI-H23 lung; 21.1 µM with ACHN renal. Moreover, the TGI in the assay on SK-OV-3 ovarian was found to be 67.5 µM; with MDA-MB-231 breast, 35.3 µM; in the assay with RXF 393 renal, 20.5 µM; with COLO 205 colon it was 30 µM.

In the case of `CCNc1cc2oc(=O)cc(C(F)(F)F)c2cc1C`, the TGI with SN12C renal, with SNB-75 CNS, with HT29 colon, with EKVX NSCLC, with NCI-H23 lung and with ACHN renal was over 100 µM throughout. In addition, the TGI with SK-OV-3 ovarian, with MDA-MB-231 breast, in the assay on RXF 393 renal and with COLO 205 colon was over 100 µM each time.

Consider `COc1cccc(Sc2ccc([N+](=O)[O-])c3no[n+]([O-])c23)c1`, for which the GI50 was 16.9 µM in the assay on SN12C renal; 13.9 µM in the assay on SNB-75 CNS; 9.8 µM in the assay on HT29 colon; 14.8 µM with EKVX NSCLC; 7.14 µM in the assay on NCI-H23 lung; 2.84 µM in the assay with ACHN renal. The GI50 with SK-OV-3 ovarian is 29.8 µM; with MDA-MB-231 breast it was 11.2 µM; with RXF 393 renal, 8.99 µM; in the assay on COLO 205 colon, 2.49 µM. Also, the TGI in the assay with SN12C renal was 46.8 µM; with SNB-75 CNS it was 39.4 µM; in the assay on HT29 colon, over 55.6 µM; with EKVX NSCLC, 39.5 µM; with NCI-H23 lung it was 25 µM; with ACHN renal it was 8.78 µM. Besides, the TGI in the assay with SK-OV-3 ovarian was over 77.7 µM; in the assay with MDA-MB-231 breast, 28 µM; with RXF 393 renal, 23.8 µM; in the assay on COLO 205 colon, 7.31 µM.

As for `O=c1cc(-c2ccccc2)oc2ccc(OC/C(=N/O)c3ccc(F)cc3)cc12`, the GI50 in the assay with SN12C renal was 6.59 µM; in the assay with SNB-75 CNS it was 4.64 µM; with HT29 colon, 2.1 µM; in the assay with EKVX NSCLC, 1.97 µM; with NCI-H23 lung it was 5.43 µM; with ACHN renal, 10.3 µM. The GI50 was 4.9 µM in the assay on SK-OV-3 ovarian, 6.16 µM in the assay with MDA-MB-231 breast, 9.99 µM with RXF 393 renal and 2.23 µM with COLO 205 colon. The TGI is 14.5 µM in the assay with SN12C renal; over 50 µM with SNB-75 CNS; 41.6 µM in the assay with HT29 colon; 15.8 µM in the assay with EKVX NSCLC; 38.4 µM in the assay with NCI-H23 lung; over 50 µM in the assay with ACHN renal. Also, the TGI in the assay with SK-OV-3 ovarian is 30.7 µM; in the assay with MDA-MB-231 breast, 27.2 µM; in the assay on RXF 393 renal it was 26.1 µM; in the assay on COLO 205 colon, 8.19 µM.

On to `O=C(O)C1CCN(Cc2oc(CO)cc(=O)c2O)C1` (stereo not given), for which the TGI with SN12C renal, in the assay on SNB-75 CNS, in the assay on HT29 colon, in the assay with EKVX NSCLC, in the assay on NCI-H23 lung and with ACHN renal was over 100 µM in each case. In addition, the TGI in the assay with SK-OV-3 ovarian, in the assay on MDA-MB-231 breast, in the assay on RXF 393 renal and in the assay with COLO 205 colon was over 100 µM throughout.

With `COC1(OC)C2(Cl)C(Cl)=C(Cl)C1(Cl)C1c3ccc(C(C)=O)c4cccc(c34)C12` (stereo not given), the TGI in the assay with SN12C renal was over 100 µM; in the assay on SNB-75 CNS, over 89.9 µM; in the assay with HT29 colon, over 100 µM; with EKVX NSCLC, over 100 µM; with NCI-H23 lung, over 83 µM; with ACHN renal, over 87.4 µM. Moreover, the TGI in the assay with SK-OV-3 ovarian is over 100 µM; in the assay on MDA-MB-231 breast, over 100 µM; in the assay on RXF 393 renal, over 100 µM; in the assay with COLO 205 colon, 34.8 µM.
